Results on seven compounds are retold here after patent US20240139142A1, “METHOD FOR PREVENTING OR TREATING LIVER DISEASE” (priority 2022, published 2024).

Structures are written as SMILES. Like-named read-outs stand apart in the source and are kept apart here.

For one data set, the system named is cancer cells. Particulars: background statement; cited from earlier work.
Data set [1] has as its system liver hepatocellular carcinoma cell line Mahlavu. Kind of data set: MTS analysis, growth inhibition (GI50). It is filed as cell-based. Particulars: read-out: GI50, Mahlavu liver hepatocellular carcinoma cell line.
Data set [2] has as its system liver hepatocellular carcinoma cell line SNU-449. Kind of data set: MTS analysis, growth inhibition (GI50). It is filed as cell-based. Particulars: for GI50: Homo sapiens.
The subject of data set [3] is liver hepatocellular carcinoma cell line with Nexavar drug resistance. Nature of the data set: Protein expression and apoptosis in drug-resistant cell line. It is filed as cell-based. From the text:
WT: wild-type liver hepatocellular carcinoma cell line. R: Nexavar-drug resistance-liver hepatocellular carcinoma cell line.
After treating liver hepatocellular carcinoma cell line with Nexavar drug resistance by PCH1130 or PCH1152, the expressions of molecules such as USP22, ABCC1, ABCC2 and Twist in liver hepatocellular carcinoma may be decreased, and the expressions of cleaved Caspase-8 and PARP may be increased, which induced the apoptosis of liver hepatocellular carcinoma cells.

Data set [4] has as its system SNU-449 liver hepatocellular carcinoma cell line. Kind of data set: Western blot, apoptosis and ABCC2/Mcl-1/Twist expression. In kind it is cell-based. Particulars: low concentration. Background: Immunoblotting shows a protein as a band on a membrane.
Data set [5] deals with mouse xenograft model of liver hepatocellular carcinoma. Nature of the data set: Safety test, median lethal dose (LD50), intravenous injection. In kind it is in vivo. As for the experimental part: (§1) The mouse xenograft model of liver hepatocellular carcinoma was administered with different concentrations of PCH1152 or P1130 via intravenous injection, and the median lethal dose (LD50) was calculated by the number of death and dosage.

Experiment in data set [6]: as above
In kind it is in vivo. Particulars: in vivo, mouse. As for the experimental part:
as §1

The subject of data set [7] is SNU-449 liver hepatocellular carcinoma cell line. Kind of data set: Western blot of apoptosis markers (cleaved caspase 8, cleaved PARP). It is filed as cell-based. Particulars: 0.3 μM, 0, 24, 48 and 72 hours. As for the experimental part: SNU-449 liver hepatocellular carcinoma cell line was treated by 0.3 μM isothiocyanate structural modified compounds P1130 and PCH1152, and natural isothiocyanate compound PEITC, and the control group was treated by DSMO. After extracting the proteins in the cells at different time points, such as 0, 24, 48 and 72 hours, analysis and comparison were performed by using western blot. […] The results represent that the two structural modified compounds described above effectively promoted the apoptosis of the liver hepatocellular carcinoma cells (FIG. 1).

For data set [8], the system named is Mahlavu liver hepatocellular carcinoma cell line. Nature of the data set: Expression of ABCC2, Twist and Mcl-1 after treatment. In kind it is cell-based. Particulars: 2.5 μM, 64 hours. From the text: (§2) The process of trans-differentiating epithelial cells into motile mesenchymal cells is called epithelial-mesenchymal transition (EMT). EMT is indispensable in development, wound healing and stem cell behavior, and may induce fibrosis and carcinogenesis pathologically. In addition, EMT plays an important role in liver fibrosis, liver cirrhosis and liver hepatocellular carcinoma. […] Moreover, EMT may increase the anti-apoptosis effect, which will result in the development of drug resistance in cancer treatment, and induce the development of stemness of the cancer cells, as well as increase the number of cancer stem cells. The cancer stem cell is one of the important factors in the progression, recurrence, metastasis and drug resistance of the cancer. There is an evidence that in the samples of the liver hepatocellular carcinoma patients with poor prognosis, the overexpressions of Twist and Snail were observed. […] The results above represent that isothiocyanate structural modified compound of the present disclosure may prevent liver carcinogenesis and the growth, invasion, metastasis, progression and recurrence of liver hepatocellular carcinoma via inhibiting epithelial-mesenchymal transition, anti-apoptosis and/or inhibiting drug resistance.

In data set [9] the test system is SNU-449 liver hepatocellular carcinoma cell line. Described as above. In kind it is cell-based. Particulars: 2.5 μM, 64 hours.
Source text: as §2

Data set [10] concerns human normal liver cell line THLE-2. Nature of the data set: Western blot, apoptosis and ABCC2/Mcl-1/Twist expression. In kind it is cell-based. Particulars: low concentration.
Data set [11] has as its system Sorafenib-drug resistance-liver hepatocellular carcinoma cell line SNU-499. Kind of data set: MTS assay cell viability IC50. In kind it is cell-based. As for the experimental part:
(§3) In order to look for the biomarkers of drug resistance for liver hepatocellular carcinoma, liver hepatocellular carcinoma cell line Hep3B and SNU-449 were continually cultured in an environment with Sorafenib, and the concentration of Sorafenib was increased gradually. Specifically, broth containing 3.5 μM to 10.8 μM Sorafenib was used as a starting concentration (compared to the IC50 of the cell), and the concentration increased 0.5 μM every week until the Sorafenib-drug resistance-liver hepatocellular carcinoma cell line was established. […] With the same experimental procedures as described above, the Sorafenib-drug resistance-cell line was also cultured in a cell broth containing Regorafenib, and the cell viability was tested by MTS assay.

Data set [12] concerns wild-type liver hepatocellular carcinoma cell line Hep3B. Kind of data set: MTS assay cell viability IC50. It is filed as cell-based. Particulars: Homo sapiens. As for the experimental part:
as §3
(In general: Tetrazolium assays rely on reduction of a dye to a coloured formazan, in cell work by metabolically active cells.)

Data set [13] has as its system Sorafenib-drug resistance-liver hepatocellular carcinoma cell line Hep3B. Nature of the data set: MTS assay cell viability IC50. Particulars: Homo sapiens. It is filed as cell-based. The procedure:
as §3

Data set [14] relates to wild-type liver hepatocellular carcinoma cell line SNU-499. Kind of data set: MTS assay cell viability IC50. In kind it is cell-based.
Data set [15] relates to liver hepatocellular carcinoma cell line SNU-449. Nature of the data set: MTS assay cell growth, selectivity test. In kind it is cell-based. Particulars: SNU-449 vs THLE-2, MTS assay.
Data set [16] has as its system Hepatitis B virus-induced ROS in Huh-7 cells. Kind of data set: Removal of HBV-induced ROS, DHE fluorescence. It is filed as cell-based, human. Particulars: Huh-7 transfected with pGEM C12, 5 μM PCH1152, 10 μM NAC. The procedure:
To examine the effect of PCH1152, NAC or the combination thereof on removing HBV-induced ROS, the Huh-7 cells were remained untreated, or treated with 5 μM PCH1152, 10 μM NAC or 5 μM PCH 1152 plus 10 μM NAC. The ROS was examined by DHE fluorescence, and the difference between each group was compared by Tukey's Multiple Comparison Test.

Setting [17] is: SNU-449, MTS analysis, read-out: GI50, SNU-449 liver hepatocellular carcinoma cell line.
Setting [18] is: read-out: The IC50 of Regorafenib, wild-type liver hepatocellular carcinoma cell line.
Where [19] appears, read: read-out: The IC50 of Sorafenib, wild-type liver hepatocellular carcinoma cell line.

As usually defined, the GI50 is the concentration giving 50% growth inhibition. As for `S=C=NCc1ccccc1` [BITC, benzyl isothiocyanate], the “dose needed to have the inhibiting effect on cancer cells” value with cancer cells is given as roughly 10 mM. In addition, the results for the 50% growth inhibitory concentration (GI50) in data set [1] (MTS analysis) and in [2] (setting [17]) were 3.84 µM and 9.58 µM, respectively.

Broadly, the LD50 is the dose expected to kill half of the subjects tested. Regarding `COc1ccc(CCN=C=S)cc1` [P1130], in data set [3], the “effect on drug resistance in liver hepatocellular carcinoma” value is given as “reversing the drug resistance”; the “expressions of USP22, ABCC1, ABCC2 and Twist” value is reported as “decreased”; the “expressions of cleaved Caspase-8 and PARP” value was “increased”. Also, in [1], the GI50 was 1.52 µM. Also, in data set [4], the “apoptosis of liver hepatocellular carcinoma cell line” value is listed as “promote apoptosis”; the “expressions of ABCC2, Mcl-1 and Twist” value was “inhibit the expressions”. Also, the “toxicity relative to existing anticancer drug, e.g. Taxotere” value in data set [5] is “comparable”. In data set [6], this compound came in with an LD50 of 100 to 300 mg/kg. Besides, in data set [2] (SNU-449, read-out: GI50, SNU-449 liver hepatocellular carcinoma cell line), the GI50 was 0.64 µM. Besides, in data set [2] (compared to natural isothiocyanate compounds BITC or PEITC), the “increase of the ability of inhibiting the growth of the liver hepatocellular carcinoma cell line” value stood at 12 times. In addition, in data set [7], the “expression levels of cleaved caspase 8 and cleaved PARP” value is reported as “significantly increased”. Further, the “expressions of ABCC2, Twist and Mcl-1” value in data set [8] was “inhibition”. The “expressions of ABCC2, Twist and Mcl-1” value in data set [9] is reported as “inhibition”. Moreover, the “apoptosis promotion and inhibition of ABCC2, Mcl-1, Twist in human normal liver cell line” value in data set [10] is reported as “no such effect”.

The IC50 is the concentration that inhibits the measured activity by half. As for `CNC(=O)c1cc(Oc2ccc(NC(=O)Nc3ccc(Cl)c(C(F)(F)F)c3)c(F)c2)ccn1` [Regorafenib], the results for the GI50 in data set [1] (MTS analysis) and in [2] (setting [17]) were 5 µM and 4.54 µM, respectively. Further, the IC50 in [11] (SNU-499, Sorafenib-resistant, read-out: The IC50 of Regorafenib, drug resistance-liver hepatocellular carcinoma cell line) came out at 14.5 µM; in data set [12] (setting [18]), 4.28 µM; in data set [13] (Sorafenib-resistant, read-out: The IC50 of Regorafenib, drug resistance-liver hepatocellular carcinoma cell line), 8.33 µM; in data set [14] (setting [18]), 3.66 µM.

With `S=C=NCCc1ccccc1` [PEITC, phenylethyl isothiocyanate, reference compound], the GI50 in [1] (MTS analysis) was determined as 9.59 µM; in data set [2] (setting [17]), 7.58 µM. Moreover, the “expression levels of cleaved caspase 8 and cleaved PARP” value in [7] is recorded as “only slightly increased”.

As for `COc1cccc2c1C(=O)c1c(O)c3c(c(O)c1C2=O)C[C@@](O)(C(=O)CO)C[C@@H]3O[C@H]1C[C@H](N)[C@H](O)[C@H](C)O1` [Doxorubicin, reference compound], the “selectivity between liver hepatocellular carcinoma cell and normal liver cell” value in data set [15] was “did not have selectivity”.

Regarding `CC(=O)N[C@@H](CS)C(=O)O` [NAC, N-acetylcysteine, reference compound], in [16], the “HBV-induced ROS increasement” value was “significantly reduce”.

Turning to `CNC(=O)c1cc(Oc2ccc(NC(=O)Nc3ccc(Cl)c(C(F)(F)F)c3)cc2)ccn1` [Sorafenib], the GI50 in [1] (MTS analysis) worked out at 3.58 µM; in [2] (setting [17]) it was 2.34 µM. The IC50 is 14.2 µM in [11] (SNU-499, read-out: The IC50 of Sorafenib, drug resistance-liver hepatocellular carcinoma cell line); 3.8 µM in [12] (setting [19]); 10.9 µM in data set [13] (read-out: The IC50 of Sorafenib, drug resistance-liver hepatocellular carcinoma cell line); 7.89 µM in data set [14] (setting [19]).
